Measurements reported in article PMC8533253, “Bis-thiobarbiturates as Promising Xanthine Oxidase Inhibitors: Synthesis and Biological Evaluation” (Biomedicines, 2021).

Assays:
[1] = Antioxidant assay, DPPH method; conditions: 60 min
Procedure: (§1) XO inhibitory and antioxidant assays were performed in triplicate while antiproliferative assay was conducted in quadruplicate. For each assay, at least two independent experiments were performed. An initial screening at the concentration of 30 μM for all compounds under study was performed in each in vitro study. A second screening at 5 μM was performed for compounds that originated an inhibitory potential higher than 80% for the XO activity at 30 μM. Half-maximal inhibitory concentration (IC50) studies were performed for drugs used as a reference and for the most promising bis-thiobarbiturate in XO inhibitory, antioxidant, and cytotoxicity assays.
Antioxidant potential was spectrophotometrically evaluated by the 2,2-diphenyl-1-picrylhydrazyl (DPPH, Sigma-Aldrich, St. Louis, MO, USA) method. All solutions and dilutions were prepared in 99.5% ethanol before each experiment. For each assay, 100 μL of the test solution and 100 μL of DPPH solution (0.2 mM) were added to each well of a 96 wells Elisa microplate. […] After 60 min of incubation in dark at rt, the capacity of each compound to reduce DPPH was followed by measuring the absorbance at 517 nm. Ethanol was used as a negative control and Trolox as the positive control. To discount the absorbance of each compound at 517 nm, a blank was performed with 100 μL of each test compound and 100 μL of ethanol. The antioxidant capacity of each sample was calculated according to the following formula:% DPPH scavenging = [1 − (ABSsample − ABSblank of sample)/ABSnegative control] × 100
(§2) All in vitro results are expressed as mean values ± standard deviation (SD) of at least two independent determinations. The difference between groups was analyzed for each assay by Student’s t-test. The IC50 values were calculated by sigmoidal fitting analysis considering a 95% confidence interval.

Xanthine oxidase (XO) = molecular target: T1, Xanthine oxidase (XO) (Bos taurus, UniProt P80457); assay: XO inhibitory assay (spectrophotometric quantification of uric acid formation at 295 nm); type: biochemical; conditions: read-out: XO inhibition (%)
T1 construct: purchased Sigma-Aldrich X4875
T1 sequence (P80457 whole entry): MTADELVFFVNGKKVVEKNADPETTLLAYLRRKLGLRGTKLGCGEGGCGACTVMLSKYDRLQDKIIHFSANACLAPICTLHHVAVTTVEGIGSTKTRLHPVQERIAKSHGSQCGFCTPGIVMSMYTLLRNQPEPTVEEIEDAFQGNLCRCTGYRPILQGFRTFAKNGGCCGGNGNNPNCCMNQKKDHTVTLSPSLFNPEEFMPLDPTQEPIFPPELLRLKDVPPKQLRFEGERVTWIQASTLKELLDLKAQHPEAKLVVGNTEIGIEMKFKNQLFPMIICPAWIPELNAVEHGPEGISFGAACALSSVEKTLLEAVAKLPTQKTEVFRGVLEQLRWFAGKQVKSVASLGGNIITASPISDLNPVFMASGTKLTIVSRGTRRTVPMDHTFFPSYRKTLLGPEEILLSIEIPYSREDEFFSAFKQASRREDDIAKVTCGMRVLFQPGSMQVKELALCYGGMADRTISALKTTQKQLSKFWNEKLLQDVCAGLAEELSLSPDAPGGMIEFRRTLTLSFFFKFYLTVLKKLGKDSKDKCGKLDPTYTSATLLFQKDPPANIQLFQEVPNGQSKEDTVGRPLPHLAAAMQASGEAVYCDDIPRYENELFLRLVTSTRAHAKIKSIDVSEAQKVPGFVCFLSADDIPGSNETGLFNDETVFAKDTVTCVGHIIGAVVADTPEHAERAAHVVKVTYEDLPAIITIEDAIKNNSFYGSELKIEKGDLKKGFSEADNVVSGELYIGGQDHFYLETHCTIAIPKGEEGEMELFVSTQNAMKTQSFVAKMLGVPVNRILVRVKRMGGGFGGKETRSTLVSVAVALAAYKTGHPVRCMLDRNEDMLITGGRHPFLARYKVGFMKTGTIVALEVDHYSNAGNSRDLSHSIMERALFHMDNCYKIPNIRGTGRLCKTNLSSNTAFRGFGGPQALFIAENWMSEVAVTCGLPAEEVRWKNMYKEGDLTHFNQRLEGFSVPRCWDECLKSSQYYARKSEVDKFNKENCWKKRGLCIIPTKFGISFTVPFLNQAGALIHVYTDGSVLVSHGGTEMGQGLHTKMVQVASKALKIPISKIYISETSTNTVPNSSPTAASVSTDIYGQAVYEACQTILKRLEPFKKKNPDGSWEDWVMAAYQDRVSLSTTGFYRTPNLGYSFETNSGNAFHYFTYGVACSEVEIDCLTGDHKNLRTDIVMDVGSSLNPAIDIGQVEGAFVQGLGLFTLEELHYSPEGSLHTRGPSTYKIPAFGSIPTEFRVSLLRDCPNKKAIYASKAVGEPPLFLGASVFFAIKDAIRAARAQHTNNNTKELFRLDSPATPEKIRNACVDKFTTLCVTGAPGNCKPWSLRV
Procedure: XO inhibitory and antioxidant assays were performed in triplicate while antiproliferative assay was conducted in quadruplicate. For each assay, at least two independent experiments were performed. An initial screening at the concentration of 30 μM for all compounds under study was performed in each in vitro study. […] Half-maximal inhibitory concentration (IC50) studies were performed for drugs used as a reference and for the most promising bis-thiobarbiturate in XO inhibitory, antioxidant, and cytotoxicity assays.
The XO inhibitory activity was evaluated by spectrophotometric quantification of uric acid formation. The 50 mM dihydrogen phosphate buffer (pH 7.4) was used to dilute all solutions. For each assay performed, 50 μL of the test solution and 50 μL of the 0.1 U/mL XO (Sigma-Aldrich X4875, St. Louis, MO, USA) solution were added in each well of an Elisa microplate (96 wells) followed by 5 min of incubation at 37 °C. […] The reaction started with the addition of 150 μL of a xanthine solution (420 μM). The absorbance was recorded at a wavelength of 295 nm every minute for 10 min. To obtain only the absorbance associated with uric acid, a solution consisting of 50 μL of the test solution, 150 μL of the xanthine solution, and 50 μL of buffer were used as blank. […] For each compound, the percentage of enzyme inhibition was calculated according to the following formula:% of XO inhibition = [1 − (ABSsample − ABSblank of sample)/ABSnegative control] × 100
as §2

[2] = Cytotoxicity assay (MTT) on NHDF; type: cell-based, human; conditions: human, NHDF cells (non-tumor human dermal fibroblasts), 30 µM, 72 h, MTT; read-out: Cytotoxicity (% cell viability at 30 µM) NHDF
Procedure: as §1
(§3) The cytotoxic potential of the compounds being studied was evaluated by quantifying the extent of the reduction of 3-(4,5-dimethylthiazol-2-yl)-2,5-diphenyltetrazolium bromide (MTT, VWR, Radnor, PA, USA) on tumor cell lines of the colon (Caco-2) and breast (MCF-7) adenocarcinoma and non-tumor human dermal fibroblasts (NHDF). All cell lines were obtained from the American Type Culture Collection (ATCC, Manassas, VA, USA) and were maintained in 75 cm^2 culture flasks in a humidified air incubator with 5% CO2 at 37 °C. NHDF cells have grown in RPMI 1640 medium (Sigma-Aldrich, St. Louis, MO, USA) supplemented with 10% fetal bovine serum (FBS), 10 mM 4-(2-hydroxyethyl)-1-piperazineethanesulfonic acid (HEPES), 2 mM L-glutamine, 1 mM sodium pyruvate, and 1% antibiotic/antimycotic (Ab: 10,000 units/mL penicillin G, […] streptomycin and 25 μg/mL amphotericin B). MCF-7 cells were cultured in high-glucose Dulbecco’s modified Eagle medium (DMEM, Sigma-Aldrich, St. Louis, MO, USA) supplemented with 10% FBS, and 1% Ab. The Caco-2 cell line was cultured in a high glucose DMEM supplemented with 20% FBS and 1% of the antibiotic mixture (Sp: 10,000 units/mL penicillin G and […] of streptomycin). For the assay, cells were seeded in 96-well plates (2 × 10^4 cells/mL) in the culture medium. After 48 h of adherence, cells were treated with the test solutions and incubated for 72 h. […] Untreated cells were used as a negative control and 5-FU as the positive control. Following incubation, the medium was removed and replaced with a fresh incomplete culture medium (without FBS and Ab or Sp) and MTT solution [5 mg/mL in phosphate buffer saline (PBS)]. After further incubation for 4 h at 37 °C, the medium with MTT was removed, formazan crystals were dissolved in DMSO, and the absorbance was read at 570 nm. Results were expressed as the relative cell proliferation in comparison with the negative control cells.
as §2

[3] = Cytotoxicity/antiproliferative assay (MTT) on Caco-2; type: cell-based; conditions: human, read-out: Cytotoxicity (% cell viability at 30 µM) Caco-2
Procedure: as §1, §3, §2

[4] = Cytotoxicity/antiproliferative assay (MTT) on MCF-7; type: cell-based; conditions: human, MCF-7 cells (breast adenocarcinoma), read-out: Cytotoxicity (% cell viability at 30 µM) MCF-7
Procedure: as §1, §3, §2

Row | SMILES | DPPH (% scavenging at 30 µM) [1] | IC50 ([1]; read-out: DPPH Scavenging IC50) | inhibition at 5 µM (Xanthine oxidase (XO)) | inhibition at 30 µM (Xanthine oxidase (XO)) | viability at 72 h, 30 µM [2] | viability at 72 h, 30 µM [3] | viability at 72 h, 30 µM [4] | melting point
1 | Cc1c(C)c2c(c(C)c1O)CCC(C)(C(=O)O)O2 (centres unmarked) [Trolox, reference compound] | 54.86 ± 0.98% | 23.8 ± 2.13 µM | – | – | – | – | – | –
2 | CCn1c(O)c(C(C(C)=Cc2ccccc2)c2c(O)n(CC)c(=S)n(CC)c2=O)c(=O)n(CC)c1=S [Compound 18, 5,5′-(2-Methyl-3-phenylprop-2-ene-1,1-diyl)bis(1,3-diethyl-6-hydroxy-2-thioxo-2,3-dihydropyrimidin-4(1H)-one)] | 31.04 ± 0.66% | – | 63.4 ± 2.1% | 98.85 ± 0.82% | 86.5 ± 2.38% | 94.7 ± 7.19% | 88.3 ± 3.29% | 145 to 146 °C
3 | CCn1c(O)c(C(c2ccc(OC)cc2)c2c(O)n(CC)c(=S)n(CC)c2=O)c(=O)n(CC)c1=S [Compound 10, 5,5′-((4-Methoxyphenyl)methylene)bis(1,3-diethyl-6-hydroxy-2-thioxo-2,3-dihydropyrimidin-4(1H)-one)] | 38.12 ± 1.56% | – | – | 23.5% | – | 62.6 ± 7.74% | 100 ± 13% | 139 to 140 °C
4 | Cc1nc(-c2ccc(OCC(C)C)c(C#N)c2)sc1C(=O)O [Febuxostat, febuxostat, reference compound] | – | – | 93.9 ± 2.84% | 95% | – | – | – | –
5 | O=c1[nH]c(=S)[nH]c(O)c1C(c1ccc([N+](=O)[O-])cc1)c1c(O)[nH]c(=S)[nH]c1=O [Compound 7, 5,5′-((4-Nitrophenyl)methylene)bis(6-hydroxy-2-thioxo-2,3-dihydropyrimidin-4(1H)-one)] | 32.41 ± 0.26% | – | – | 20.9% | 96.6 ± 4.32% | 97.1 ± 3.63% | 98.7 ± 4.83% | 225 °C (dec.)
6 | O=c1[nH]c(O)c(C(c2ccc([N+](=O)[O-])cc2)c2c(O)[nH]c(=O)[nH]c2=O)c(=O)[nH]1 | – | – | – | – | – | – | – | 227 °C (dec.)
7 | Oc1ncnc2[nH]ncc12 [Allo, allopurinol, reference compound] | 0.48 ± 0.21% | – | 26.9 ± 0.82% | 88.5% | – | – | – | –
8 | CCn1c(O)c(C(c2ccc([N+](=O)[O-])cc2[N+](=O)[O-])c2c(O)n(CC)c(=S)n(CC)c2=O)c(=O)n(CC)c1=S [Compound 15, 5,5′-((2,4-Dinitrophenyl)methylene)bis(1,3-diethyl-6-hydroxy-2-thioxo-2,3-dihydropyrimidin-4(1H)-one)] | 32.33 ± 0.48% | – | – | 14.9% | 91.2 ± 7.77% | 96.9 ± 4.73% | 91.2 ± 4.26% | 169 to 170 °C
9 | CCn1c(O)c(C(c2ccccc2[N+](=O)[O-])c2c(O)n(CC)c(=S)n(CC)c2=O)c(=O)n(CC)c1=S [Compound 13, 5,5′-((2-Nitrophenyl)methylene)bis(1,3-diethyl-6-hydroxy-2-thioxo-2,3-dihydropyrimidin-4(1H)-one)] | 29.90 ± 0.50% | – | 37.4% | 89.7% | 75.8 ± 2.41% | 95.4 ± 4.17% | 98.2 ± 3.25% | 172 to 173 °C
10 | CCn1c(O)c(C(c2ccc(C)cc2)c2c(O)n(CC)c(=S)n(CC)c2=O)c(=O)n(CC)c1=S [Compound 4, 5,5′-(p-Tolymethylene)bis(1,3-diethyl-6-hydroxy-2-thioxo-2,3-dihydropyrimidin-4(1H)-one)] | 42.64 ± 0.81% | – | – | 36.5% | 95.6 ± 7.26% | 98.6 ± 5.7% | 90.6 ± 3.92% | 163 to 164 °C
11 | CCn1c(O)c(C(c2cc3c(cc2[N+](=O)[O-])OCO3)c2c(O)n(CC)c(=S)n(CC)c2=O)c(=O)n(CC)c1=S [Compound 17, 5,5′-((6-Nitrobenzo[d][1,3]dioxol-5-yl)methylene)bis(1,3-diethyl-6-hydroxy-2-thioxo-2,3-dihydropyrimidin-4(1H)-one)] | 40.90 ± 0.65% | – | 55.2 ± 1.63% | 90.8 ± 2.87% | 68.9 ± 9.33% | 88.7 ± 7.85% | 86.6 ± 5.87% | 148 to 149 °C
12 | CCn1c(O)c(C(c2cccc(O)c2)c2c(O)n(CC)c(=S)n(CC)c2=O)c(=O)n(CC)c1=S [Compound 12, 5,5′-((3-Hydroxyphenyl)methylene)bis(1,3-diethyl-6-hydroxy-2-thioxo-2,3-dihydropyrimidin-4(1H)-one)] | 42.92 ± 0.61% | – | – | 72.2% | 85.6 ± 7.17% | 90.9 ± 3.84% | 91.7 ± 4.91% | 191 to 193 °C
13 | CCn1c(O)c(C(c2cccnc2)c2c(O)n(CC)c(=S)n(CC)c2=O)c(=O)n(CC)c1=S [Compound 19, 5,5′-(Pyridin-3-ylmethylene)bis(1,3-diethyl-6-hydroxy-2-thioxo-2,3-dihydropyrimidin-4(1H)-one)] | 3.83 ± 2.44% | – | 67.3 ± 1.27% | 91.7 ± 1.87% | 81 ± 3.57% | 80.7 ± 13% | 93.7 ± 5.68% | 253 to 254 °C
14 | O=c1[nH]cc(F)c(=O)[nH]1 [Compound 5-FU, 5-fluorouracil, reference compound] | – | – | – | – | 20.9 ± 0.83% | 37.1 ± 1.51% | 45.9 ± 4.72% | –
